Four compounds from US12227771B2, “Expression systems and methods of use thereof” (Janssen Pharmaceutica NV, priority 2019, dated 2025) can be followed below.

Usually IC50 stands for the midpoint of a concentration-inhibition curve.

Where “and” joins values, the source holds several entries; their conditions need not be identical. Identical values can stand only once. Like-named read-outs stand apart in the source and are kept apart here.

The target in test [1] is T1, α9α10 nAChR (Homo sapiens, UniProt Q9GZZ6+Q9UGM1).
T1 construct: expressed in transfected cells; host or cells: HEK293T
As to the kind of experiment: cell-based. Format: cell-based. Particulars: for rank order of potency of antagonists: dose response curves. An excerpt: After three washes, the plates were placed in the FLIPR stage. […] Maximal FLIPR responses to ACh were plotted (FIGS. 3A-C).
Target sequence in this assay (Q9GZZ6 25-450): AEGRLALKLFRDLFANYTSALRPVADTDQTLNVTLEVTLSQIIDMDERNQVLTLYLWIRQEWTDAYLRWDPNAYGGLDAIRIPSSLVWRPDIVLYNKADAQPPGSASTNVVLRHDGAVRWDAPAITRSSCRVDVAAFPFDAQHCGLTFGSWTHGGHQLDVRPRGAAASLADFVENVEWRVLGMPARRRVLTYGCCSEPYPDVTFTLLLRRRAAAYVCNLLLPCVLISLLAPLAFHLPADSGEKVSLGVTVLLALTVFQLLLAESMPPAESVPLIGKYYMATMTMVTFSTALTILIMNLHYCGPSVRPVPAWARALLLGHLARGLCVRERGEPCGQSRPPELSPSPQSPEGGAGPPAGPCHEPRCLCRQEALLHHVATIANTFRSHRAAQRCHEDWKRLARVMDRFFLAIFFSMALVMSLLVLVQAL
Target sequence in this assay (Q9UGM1 23-479): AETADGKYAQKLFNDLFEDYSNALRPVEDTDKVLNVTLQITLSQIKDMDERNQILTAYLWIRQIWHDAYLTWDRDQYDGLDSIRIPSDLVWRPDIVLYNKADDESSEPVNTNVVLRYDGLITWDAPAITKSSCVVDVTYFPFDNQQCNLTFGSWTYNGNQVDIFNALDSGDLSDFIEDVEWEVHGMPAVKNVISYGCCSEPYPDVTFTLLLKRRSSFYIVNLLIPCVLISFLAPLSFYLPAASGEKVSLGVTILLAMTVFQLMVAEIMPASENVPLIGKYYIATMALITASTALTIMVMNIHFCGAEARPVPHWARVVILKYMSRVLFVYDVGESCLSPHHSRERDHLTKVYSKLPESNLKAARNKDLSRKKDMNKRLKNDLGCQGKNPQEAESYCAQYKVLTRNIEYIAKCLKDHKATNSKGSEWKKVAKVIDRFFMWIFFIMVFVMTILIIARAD

The target in test [2] is T1, α9α10 nAChR. As to the kind of experiment: FLIPR calcium assay of HEK293T cells co-transfected with α9α10 nAChR and cDNA clones, response evoked by 200 μM ACh. The test is classed as cell-based. Particulars: 200 μM ACh; for FLIPR Response (Fold/Baseline): 180 s. The protocol:
Human embryonic kidney 293T (HEK293T) cells were cultured in high glucose DMEM medium supplemented with 10% FBS, sodium pyruvate and penicillin/streptomycin. Prior to transfection, cells were seeded at ˜80-90% confluence in 384-well fluorescence imaging plate reader (FLIPR) assay plates. After a 4 hour (hr) incubation, wells of cells were individually co-transfected with human α9α10 nAChR plus one of 20,000 clones from cDNA libraries encoding most all human proteins (Origene Technologies; Rockville, Md.; Broad Institute; Cambridge, Mass.) using Fugene HD (Promega; Madison, Wis.) according to the manufacture's protocol. After two days incubation, cells were washed three times with assay buffer (137 mM NaCl, 4 mM KCl, 2 mM CaCl2, 1 mM MgCl2, 5 mM glucose, 10 mM HEPES pH7.4) and loaded with Calcium5 dye (Molecular Devices; San Jose, Calif.) and 1.25 mM probenecid for 1 hr at room temperature (RT). After three washes, the plates were placed in the FLIPR stage.
To further characterize the regulation of α9α10 nAChR expression, HEK293T cells were co-transfected with α9α10 nAChR and each of CHAT, TMIE, TMEM100, TMEM132A, TMEM132C, TMEM132D, TMEM132E and TNFRSF10A individually and in combination (Table 2).
Target sequence in this assay (Q9UGM1 23-479): as above
Target sequence in this assay (Q9GZZ6 25-450): as the sequence (Q9GZZ6 25-450) above

Regarding `O=C1C[C@@H]2OCC=C3CN4CC[C@]56c7ccccc7N1[C@H]5[C@H]2[C@H]3C[C@H]46` [Strychnine, strychnine], the IC50 in test [1] (Antagonist IC50, HEK293T, α9α10 nAChR + CHAT + TMIE, 200 μM ACh) is 1.8 µM; in test [1] (Antagonist IC50, HEK293T, α9α10 nAChR + CHAT, 200 μM ACh) it was 1.3 µM; in test [1] (Antagonist IC50, HEK293T, α9α10 nAChR + TMIE, 200 μM ACh), 0.76 µM.

As for `CN1[C@@H]2CC[C@H]1C[C@@H](OC(=O)C(CO)c1ccccc1)C2` (stereo partly drawn) [Atropine, atropine], the IC50 in test [1] (HEK293T, α9α10 nAChR + CHAT + TMIE, 200 μM ACh, read-out: Antagonist IC50) is 340 µM; in test [1] (HEK293T, α9α10 nAChR + CHAT, 200 μM ACh, read-out: Antagonist IC50), 12.3 µM; in test [1] (HEK293T, α9α10 nAChR + TMIE, 200 μM ACh, read-out: Antagonist IC50), 15.7 µM. For the same compound, the “rank order of potency of antagonists” value in test [1] (200 μM ACh) is reported as “MLA>strychnine>atropine>nicotine”.

With `CN1CCCC1c1cccnc1` (stereo not drawn) [Nicotine, nicotine], in test [1] (Antagonist IC50), the 50% inhibitory concentration (IC50) is 384 µM and 544 µM and 1500 µM. For the same compound, the “rank order of potency of antagonists” value in test [1] (200 μM ACh) is listed as “MLA>strychnine>atropine>nicotine”.

For “TNFRSF10A: Tumor necrosis factor receptor superfamily member 10A, SEQ ID NO: 10, co-transfected cDNA clone”, the “FLIPR Response (Fold/Baseline)” value in test [2] (HEK293T co-transfected with α9α10 nAChR + CHAT plus the named gene) was determined as 2.0 Fold/Baseline; in test [2] (HEK293T co-transfected with α9α10 nAChR plus the named gene), 0.4 Fold/Baseline. Besides, the “functional expression of co-transfected α9α10 nAChR in cDNA library screen” value in test [2] (HEK293T, 20,000 cDNA clones) is “enabled functional expression”.
